# Assay results reported in US12304912B2, “Fused bicyclic RAF inhibitors and methods for use thereof” (Jazz Pharmaceuticals Ireland Limited, priority 2020, dated 2025).
# Columns and labels:
# [1] = Plasma protein binding assay, human plasma (hPPB); assay type: in vitro ADME; settings: 5 μM, equilibrium dialysis 4 hours 37° C.
# Outline: (§1)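 Equilibrium dialysis of 5 μM compound in previously frozen human or mouse plasma against phosphate buffer, 4 h at 37 °C. Both chambers quantified by LC-MS/MS; % free = (1−((PC−PF)/PC))×100.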
# [2] = Plasma protein binding assay, mouse plasma (mPPB); assay type: in vitro ADME; settings: 5 μM, equilibrium dialysis 4 hours 37° C.
# Outline: as §1
# [3] = Microsomal stability assay, mouse liver microsomes (MLM); assay type: in vitro ADME; settings: 0.5 mg/mL protein, 1 μM substrate
# Outline: (§2)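 Half-life and CLint come from the ln(% remaining)–time slope, with remaining compound quantified by LC-MS/MS after ice-cold solvent quench of timed samples. Incubations used 1 μM test compound and 0.5 mg·mL^−1 human or mouse liver microsomal protein at 37° C.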
# [4] = Solubility (Sol), medium not stated; assay type: physicochemical; settings: cells not marked (FESSIF)
# [5] = tested on: BRAF monomers in A375 cells; experiment: A375 AlphaLISA SureFire pERK1/2 cellular assay (monomer); assay type: cell-based; settings: Homo sapiens, A-375; A375 cells, 1 hr; read-out: pERK A375 (1 hr) pIC50 (converted)
# Experimental: (§3) The human HCT-116 colorectal carcinoma cell line (ATCC CCL-247) endogenously expresses the KRAS^G13D mutation, which leads to constitutive activation of the MAP kinase pathway and phosphorylation of ERK. […] Assay read outs took place 2 or 24 hours after dosing with compounds. On the first day, HCT-116 cells were harvested, resuspended in growth medium (McCoys5A with Glutamax (Life Technologies 36600021) and 10% heat-inactivated fetal bovine serum (Sigma F9665)), and counted. Cells were plated in 100 μl per well in each well of a 96-well culture dish (Sigma CLS3598) to a final density of 30,000 (2 hr read) or 15,000 (24 hr read) cells per well and incubated over night at 37° C. and 5% CO2. On day 2, the growth medium was exchanged for dosing medium (McCoys5A with Glutamax (Life Technologies 36600021) and 1% heat-inactivated fetal bovine serum (Sigma F9665)) and the cells were dosed with compounds to produce a 10-point dose response, where the top concentration was 1 μM and subsequent concentrations were at 1/3 log dilution intervals. A matched DMSO control was included. The cells were subsequently incubated for either 2 or 24 hours at 37° C. and 5% CO2. After incubation, media was removed and the cells were incubated with lysis buffer containing phosphatase inhibitors for 15 minutes at room temperature. Cell lysates were transferred to a 12 area 96 well white Optiplate™ (Perkin Elmer 6005569) and incubated with anti-mouse IgG acceptor beads, a biotinylated anti-ERK1/2 rabbit antibody recognizing both phosphorylated and non-phosphorylated ERK1/2, a mouse antibody targeted to the Thr202/Tyr204 epitope and recognizing phosphorylated ERK proteins only, and streptavidin-coated donor beads. The biotinylated antibody binds to the streptavidin-coated donor beads and the phopsho-ERK1/2 antibody binds to the acceptor beads. Plates were read on an EnVision reader (Perkin Elmer) and excitation of the beads at 680 nm with a laser induced the release of singlet oxygen molecules from the donor beads that trigger energy transfer to the acceptor beads in close proximity, producing a signal that can be measured at […]. Both antibodies bound to phosphorylated ERK proteins, bringing the donor and acceptor beads into close proximity. All data were analyzed using the Dotmatics or GraphPad Prism software packages. Inhibition of ERK phosphorylation was assessed by determination of the absolute IC50 value, which is defined as the concentration of compound required to decrease the level of phosphorylated ERK proteins by 50% when compared to DMSO control.
# A375 AlphaLISA SureFire pERK1/2 Cellular Assay (Monomer)
# The human A375 melanoma cell line (ATCC CRL-1619) endogenously expresses the BRAF^V600E mutation, which leads to constitutive activation of the MAP kinase pathway and phosphorylation of ERK. In BRAF^V600E mutant tumours, BRAF signals as a monomer to activate ERK. To determine whether compounds can inhibit BRAF monomers in A375 cells, they were tested using AlphaLISA® SureFire® technology (Perkin Elmer p-ERK1/2 p-T202/Y204 assay kit ALSU-PERK-A10K). The main procedure is essentially the same as described above for HCT-116 cells, with the following adjustments: The A375 cells were cultivated and dosed in Dulbecco's modified Eagle's medium containing 4.5 g/L D-glucose (Sigma D6546), 10% heat-inactivated fetal bovine serum (Sigma F9665), and 1% Sodium-Pyruvate (Sigma S8636), and seeded with a seeding density of 30,000 cells per well. No media exchange was performed before dosing with compounds to produce a 10-point dose response, where the top concentration was 10 μM and subsequent concentrations were at 1/2 log dilution intervals. Subsequently, the cells were incubated for 1 hour at 37° C. and 5% CO2 before lysis.
# [6] = tested on: RAF dimers in HCT-116 cells; experiment: HCT-116 AlphaLISA SureFire pERK1/2 cellular assay (dimer); assay type: cell-based; settings: Homo sapiens, HCT-116; HCT116 cells pre-dosed with 1 μM Encorafenib, 1 hr; read-out: pERK HCT116 dimer (1 hr) pIC50 (converted)
# Experimental: as §3
# HCT-116 AlphaLISA SureFire pERK1/2 Cellular Assay (Dimer)
# The human HCT-116 colorectal carcinoma cell line (ATCC CCL-247) endogenously expresses the KRAS^G13D mutation, which leads to constitutive activation of the MAP kinase pathway and phosphorylation of ERK. First generation RAF inhibitors can promote RAF dimer formation in KRAS mutant tumours leading to a paradoxical activation of the pathway. To determine whether compounds can circumvent this problem and inhibit RAF dimers in HCT-116 cells, they were tested using AlphaLISA® SureFire® technology (Perkin Elmer p-ERK1/2 p-T202/Y204 assay kit ALSU-PERK-A10K). The main procedure is essentially the same as described above, with the following adjustments: Cells were seeded with the seeding density of 30,000 cells per well. On the second day (the day of dosing) no medium change was performed and the cells were dosed with 1 μM of Encorafenib for 1 hour (at 37° C. and 5% CO2) to induce RAF dimers and promote paradoxical dimer-dependent pERK signalling. After incubation, the cells were washed, 100 μl fresh growth medium was added, and cells were dosed with compounds of interest to produce a 10-point dose response, where the top concentration was 10 μM and subsequent concentrations are at 1/2 log dilution intervals. Cells were incubated for another hour at 37° C. and 5% CO2 before lysis and processing with the pERK AlphaLISA® SureFire® kit as described above. […]
# [7] = Microsomal stability assay, human liver microsomes (HLM); assay type: in vitro ADME; settings: 0.5 mg/mL protein, 1 μM substrate
# Outline: as §2
SMILES,hPPB (% free) [1] [% free],mPPB (% free) [2] [% free],microsomal CLint at 1 μM [3] [µL/min/mg],Sol [4] [mg/L],IC50 [5] [nM],IC50 [6] [nM],microsomal CLint at 1 μM [7] [µL/min/mg]
"O=C1CCc2c(Oc3ccc4c(c3)CC(c3nc(-c5ccccc5C(F)(F)F)c[nH]3)CO4)ccnc2N1 (centres unmarked) [Compound 4, 5-[3-[4-[2-(trifluoromethyl)phenyl]-1H-imidazol-2-yl]chroman-6-yl]oxy-3,4-dihydro-1H-1,8-naphthyridin-2-one]",<0.1,0.5,121,<1.3,97.7,269,261
"Cc1cccc(-c2c[nH]c(C3COc4ccc(Oc5ccnc6c5CCC(=O)N6)cc4C3)n2)c1 (centres unmarked) [Compound 14, 5-[3-[4-(m-tolyl)-1H-imidazol-2-yl]chroman-6-yl]oxy-3,4-dihydro-1H-1,8-naphthyridin-2-one]",0.1,0.5,51.3,<1.1,18.2,75.9,60.7
"COc1cccc(-c2c[nH]c(C3COc4ccc(Oc5ccnc6c5CCC(=O)N6)cc4C3)n2)c1 (centres unmarked) [Compound 13, 5-[3-[4-(3-methoxyphenyl)-1H-imidazol-2-yl]chroman-6-yl]oxy-3,4-dihydro-1H-1,8-naphthyridin-2-one]",0.7,1.2,114,<1.2,35.5,123,77.1
Cc1cc(C(F)(F)F)cc2nc(C3COc4ccc(Oc5ccnc6c5CCC(=O)N6)cc4C3)[nH]c12 (centres unmarked) [Compound 31],<0.1,0.2,26,<1.2,126,871,34.6
"COc1ccccc1-c1c[nH]c(C2COc3ccc(Oc4ccnc5c4CCC(=O)N5)cc3C2)n1 (centres unmarked) [Compound 1, 5-[3-[4-(2-methoxyphenyl)-1H-imidazol-2-yl]chroman-6-yl]oxy-3,4-dihydro-1H-1,8-naphthyridin-2-one]",0.2,0.5,109,<1.2,28.2,67.6,123
"Cc1ccccc1-c1c[nH]c(C2COc3ccc(Oc4ccnc5c4CCC(=O)N5)cc3C2)n1 (centres unmarked) [Compound 2, 5-[3-[4-(o-tolyl)-1H-imidazol-2-yl]chroman-6-yl]oxy-3,4-dihydro-1H-1,8-naphthyridin-2-one]",0.3,1,85.8,<1.1,12.6,58.9,147
"COc1cncc(-c2c[nH]c(C3COc4ccc(Oc5ccnc6c5CCC(=O)N6)cc4C3)n2)c1 (centres unmarked) [Compound 17, 5-[3-[4-(5-methoxy-3-pyridyl)-1H-imidazol-2-yl]chroman-6-yl]oxy-3,4-dihydro-1H-1,8-naphthyridin-2-one]",0.7,2.4,16.5,<1.2,933,347,31.5
CN(C)Cc1cc(C(F)(F)F)cc2nc(C3COc4ccc(Oc5ccnc6c5CCC(=O)N6)cc4C3)[nH]c12 (centres unmarked) [Compound 33],2,3.1,37,7,380,661,77.3
"Cc1ccc(-c2c[nH]c(C3COc4ccc(Oc5ccnc6c5CCC(=O)N6)cc4C3)n2)cc1 (centres unmarked) [Compound 9, 5-[3-[4-(p-tolyl)-1H-imidazol-2-yl]chroman-6-yl]oxy-3,4-dihydro-1H-1,8-naphthyridin-2-one]",0.6,0.4,6.1,<1.1,331,186,70.5
"O=C1CCc2c(Oc3ccc4c(c3)CC(c3nc(-c5ccc(C(F)(F)F)cc5)c[nH]3)CO4)ccnc2N1 (centres unmarked) [Compound 20, 5-[3-[4-[4-(trifluoromethyl)phenyl]-1H-imidazol-2-yl]chroman-6-yl]oxy-3,4-dihydro-1H-1,8-naphthyridin-2-one]",0.1,0.1,3,<1.3,741,603,16.9
O=C1CCc2c(Oc3ccc4c(c3)CN(C(=O)Nc3ccccc3C(F)(F)F)CC4)ccnc2N1 [Compound 49],1.9,2.5,83.6,<1.2,7760,8910,82.2
